The results in this text go back to ChEMBL document CHEMBL2163222 (J Med Chem, 2012).

One assay has as its system T47D. The experiment in a line: Growth inhibition of human T47D cells at 10 uM by NCI-60 cell inhibition assay. Type of assay: functional. Conditions: read-out: GI.
The next assay has as its system LOX IMVI. The assay is described as follows: Growth inhibition of human LOXIMVI cells at 10 uM by NCI-60 cell inhibition assay. Conditions: read-out: GI. Type of assay: functional.
The next assay relates to SF-539. The assay is described as follows: Growth inhibition of human SF539 cells at 10 uM by NCI-60 cell inhibition assay. The class given is functional. The conditions noted are these: read-out: GI.
For another assay, the system named is TK-10. The experiment in a line: Growth inhibition of human TK10 cells at 10 uM by NCI-60 cell inhibition assay. The class given is functional. Conditions: read-out: GI.
The next assay concerns ACHN. The experiment in a line: Growth inhibition of human ACHN cells at 10 uM by NCI-60 cell inhibition assay. Type of assay: functional. The conditions noted are these: read-out: GI.
For assay [1], the target named is Dual specificity tyrosine-phosphorylation-regulated kinase 1A (Homo sapiens, UniProt Q13627). The assay is described as follows: Inhibition of DYRK1A kinase using RBER-CHKtide substrate by radiometric protein kinase assay.
The subject of the next assay is PC-3. The experiment in a line: Growth inhibition of human PC3 cells at 10 uM by NCI-60 cell inhibition assay. The class given is functional. The conditions noted are these: read-out: GI.
In a further assay the test system is OE33. The assay is described as follows: Growth inhibition of human OE33 cells after 3 days by MTT assay. Type of assay: functional, cell-based. The conditions noted are these: OE33, 72 h.
Assay [2] is described as follows: Growth inhibition of human Hs 578T cells at 10 uM by NCI-60 cell inhibition assay. The class given is functional. Conditions: read-out: GI.
The test system of another assay is SNB-75. The assay is described as follows: Growth inhibition of human SNB75 cells at 10 uM by NCI-60 cell inhibition assay. The class given is functional. The conditions noted are these: read-out: GI.
The test system of the next assay is UACC-257. The assay is described as follows: Growth inhibition of human UACC257 cells at 10 uM by NCI-60 cell inhibition assay. The class given is functional. The conditions noted are these: read-out: GI.
In another assay the test system is NCI-H226. The assay is described as follows: Growth inhibition of human NCI-H226 cells at 10 uM by NCI-60 cell inhibition assay. Conditions: read-out: GI. Type of assay: functional.
For a further assay, the system named is SW-620. The assay is described as follows: Growth inhibition of human SW620 cells at 10 uM by NCI-60 cell inhibition assay. Type of assay: functional. The conditions noted are these: read-out: GI.
The test system of a further assay is BT-549. The assay is described as follows: Growth inhibition of human BT549 cells at 10 uM by NCI-60 cell inhibition assay. The class given is functional. The conditions noted are these: read-out: GI.
A further assay relates to SN12C. The experiment in a line: Growth inhibition of human SN12C cells at 10 uM by NCI-60 cell inhibition assay. Type of assay: functional. The conditions noted are these: read-out: GI.
For another assay, the system named is OVCAR-4. The assay is described as follows: Growth inhibition of human OVCAR4 cells at 10 uM by NCI-60 cell inhibition assay. Type of assay: functional. Conditions: read-out: GI.
A further assay concerns HCT-116. The assay is described as follows: Growth inhibition of human HCT116 cells at 10 uM by NCI-60 cell inhibition assay. Conditions: read-out: GI. The class given is functional.
The subject of a further assay is T98G. The assay is described as follows: cells. Conditions: Homo sapiens, 72 h.
The test system of another assay is DU-145. The assay is described as follows: Growth inhibition of human DU145 cells at 10 uM by NCI-60 cell inhibition assay. Type of assay: functional. The conditions noted are these: read-out: GI.
Another assay deals with COLO 205. The experiment in a line: Growth inhibition of human COLO205 cells at 10 uM by NCI-60 cell inhibition assay. Type of assay: functional. Conditions: read-out: GI.
For another assay, the system named is SK-MEL-28. The experiment in a line: Growth inhibition of human SK-MEL-28 cells at 10 uM by NCI-60 cell inhibition assay. The class given is functional. Conditions: read-out: GI.

For the compound `Cc1c2c(cc[n+]1Cc1ccccc1)c1ccc(OCC3CCCCC3)cc1n2CC1CCCCC1.[Br-]`, the inhibition of growth at 10 µM with T47D was -74.1%; in the assay on LOX IMVI, -95.6%; in the assay with SF-539, -85.2%; with TK-10, -93.6%; in the assay with ACHN, -100%; with PC-3 it was -75.8%. Besides, the inhibition of growth at 10 µM in assay [2] is -36.2%; with SNB-75 it was -87.3%; in the assay with UACC-257 it was -92.4%; in the assay with NCI-H226, -89.1%; in the assay on SW-620, -96.6%; in the assay with BT-549, -91%. The inhibition of growth at 10 µM in the assay with SN12C is -91.9%; in the assay on OVCAR-4, -94.3%; in the assay with HCT-116, -98.3%; in the assay with DU-145, -100%; in the assay on COLO 205, -95.2%; in the assay with SK-MEL-28, -95.8%. In addition, the IC50 in assay [1] came to 43000 nM; in the assay with OE33 it was 370 nM; in the assay with T98G, 160 nM.
Consider `Cc1c2c(cc[n+]1Cc1ccccc1)c1ccc(OCc3ccccc3)cc1n2Cc1ccccc1.[Br-]`, for which the inhibition of growth at 10 µM was -4.02% with T47D; -93.2% in the assay on LOX IMVI; -5.52% with SF-539; 11.8% with TK-10; 8.54% in the assay with ACHN; -44.8% in the assay with PC-3. The inhibition of growth at 10 µM in [2] is -35.9%; in the assay with SNB-75, -18%; in the assay on UACC-257, -0.65%; in the assay with NCI-H226, -12%; with SW-620, -88.1%; in the assay on BT-549 it was -90.4%. The inhibition of growth at 10 µM in the assay with SN12C was -86.6%; in the assay on OVCAR-4, -3.79%; in the assay with HCT-116 it was -95.6%; in the assay on DU-145, -33.6%; with COLO 205, -82.3%; in the assay on SK-MEL-28 it was -56.5%. Further, the values for the concentration for half-maximal inhibition (IC50) in the assay with OE33 and in the assay on T98G were 700 nM and 480 nM, respectively.
